Experimental data reported in ChEMBL document CHEMBL4196242, “Irpeksins A-E, 1,10- seco-Eburicane-Type Triterpenoids from the Medicinal Fungus Irpex lacteus and Their Anti-NO Activity” (J Nat Prod, 2018).

Test system: RAW264.7
Experiment: Inhibition of LPS-induced nitric oxide production in mouse RAW264.7 cells after 18 hrs by Griess assay
Assay type: functional, cell-based
Conditions: RAW264.7, 18 h

| Structure (SMILES) | IC50 |
| --- | --- |
| CC1=C(C)[C@@]2(C[C@@H](C)[C@H]3[C@H](C[C@@]4(C)c5ccc(C(C)(C)CCCO)c(C)c5C(=O)C[C@]34C)O2)OC1=O | 12.8 µM |
| CC1=C(C)[C@@]2(C[C@@H](C)[C@H]3[C@H](C[C@@]4(C)c5ccc(C(C)(C)/C=C/CO)c(C)c5O[C@H](O)C[C@]34C)O2)OC1=O | 19.6 µM |
| CC1=C(C)[C@@]2(C[C@@H](C)[C@H]3[C@H](C[C@@]4(C)c5ccc(C(C)(C)/C=C/CO)c(C)c5C(=O)C[C@]34C)O2)OC1=O | 2.2 µM |
| CNC(=N)NCCC[C@H](N)C(=O)O [TILARGININE] | 32.9 µM |
| CC1=C(C)[C@@]2(C[C@@H](C)[C@H]3[C@H](C[C@@]4(C)c5ccc(C(C)(C)/C=C/C(=O)O)c(C)c5C(=O)C[C@]34C)O2)OC1=O | 17.9 µM |
| CC1=C(C)[C@@]2(C[C@@H](C)[C@H]3[C@H](C[C@@]4(C)c5ccc(C(C)(C)/C=C/C(=O)O)c(C)c5[C@H](O)C[C@]34C)O2)OC1=O | 4.5 µM |
